Tests used:
[1] = system: neutrophil infiltration; experiment: Myeloperoxidase (MPO) assay of neutrophil infiltration in the inflamed paw; type: in vivo, mice; details: intraplantar pretreatment; 4 h after CRG injection
Description: Myeloperoxidase assay. Paw inflammation is associated with infiltration of neutrophils (polymorphonuclear cells), and myeloperoxidase (MPO) activity is often used to quantify neutrophil activation to evaluate the magnitude of paw inflammation. To determine MPO assay, fresh skin tissues were suspended in phosphate buffer and homogenized. The suspension was centrifuged and the supernatant was assayed for MPO activity using a MPO Activity Assay Kit (Northwest Life Science Specialties, LLC). Each reaction was performed according to manufacturer's protocol. Briefly, hypochlorous acid (HOCl) is formed from MPO catalyzed reaction between chloride and hydrogen peroxide. HOCl is rapidly trapped by β-amino acid taurine to form a stable oxidant taurine chloramine. Taurine chloramine is then allowed to react with 5-thio-2-nitrobenzoic acid (TNB). TNB has a chromophore that has maximal absorbance at 412 nm while its reaction product with taurin chloramine is colorless. The color change is detected by spectrophotometry. By following the decrease of absorbance at 412 nm, MPO activity is measured. One unit is the amount of MPO that can produce 1.0 nmole of taurine chloramine at pH 6.5 and 25° C. during 30 minutes in the presence of 100 mM chloride and 100 μM of hydrogen peroxide.

[2] = system: capsaicin-induced spontaneous pain; experiment: Capsaicin-induced acute spontaneous pain; type: in vivo, mice
Description: Behavioral analysis. Mice were habituated in the testing environment for two days and performed behavioral testing in a blinded manner. Formalin-evoked spontaneous inflammatory pain was assessed by measuring duration (seconds) animals spent on licking/flinching the affected paws every 5 min for 45 min. Capsaicin-induced spontaneous pain was aslo assessed for 10 min. For testing mechanical sensitivity, mice were put in boxes on an elevated metal mesh floor and stimulated hindpaw with a series of von Frey hairs with logarithmically incrementing stiffness (0.02-2.56 grams, Stoelting), presented perpendicular to the plantar surface. It was determined the 50% paw withdrawal threshold using Dixon's up-down method^40. For testing heat sensitivity, mice were placed in plastic boxes and tested heat sensitivity using Hargreaves radiant heat apparatus (IITC Life Science Inc.). The basal paw withdrawal latency was adjusted to 9-12 seconds and set a cut-off of 20 seconds to prevent tissue damage. […] BL1, baseline latency before inflammation; BL2, baseline latency after inflammation but before drug injection; PL, latency post drug injection. Intrathecal injection: […] To examine whether pretreatment of RvE1 attenuates capsaicin-induced acute spontaneous pain, RvE1 and capsaicin were mixed and injected at the same time (FIG. 3f). […]

[3] = system: ERK phosphorylation; experiment: ERK phosphorylation (pERK) in superficial dorsal horn neurons of spinal slices; type: cell-based, mice; details: TNF-α 10 ng/ml, 5 min
Description: Spinal cord slice preparation. As previously reported^39, a portion of the lumbar spinal cord (L4-L5) was removed from young mice (3-4 week old) under urethane anesthesia (1.5-2.0 g/kg, i.p.) and transverse spinal cord slices were cut (600 μm) on a vibrating microslicer. The slices were perfused with Kreb's solution (8 ml/min) for >2 h prior to experiments. Some slices were stimulated with TNF-α (10 ng/ml, 5 min), the slices were fixed with 4% paraformaldehyde for 1 h, and processed pERK immunohistochemistry using thin sections (15 μm)^13.
Resolvins were also used for intraplantar injection. RvD1 or RvE1 was injected into the plantar surface of a hindapaw [20 ng, 20 μl , in 1% ethanol (Supplementary FIG. 5a, 5b) or in 10% ethanol (FIG. 2e, Supplementary FIG. 1d)]. […]
PERK immunohistochemistry in the spinal cord: Transverse spinal cord slices (600 μm) were cut on a vibrating microslicer. […] The stained sections were examined with a Nikon fluorescence microscope, and images were captured with a CCD Spot camera. The number of pERK-immunoreactive cells in the superficial dorsal horn (laminae I-III) was quantified in 5 spinal cord sections from each slice and averaged for that slice, and 4-5 slices from separate animals were included for data analysis^12.

[4] = system: formalin-induced inflammatory pain; experiment: Formalin-induced spontaneous inflammatory pain (licking/flinching duration); type: in vivo, mice; details: intraplantar RvE1 20 ng, 10 min before intraplantar formalin

CC[C@@H](O)/C=C/C=C\C[C@@H](O)/C=C/C=C/C=C\[C@@H](O)CCCC(=O)O [RvE1, 5S,12R,18R-trihydroxyeicosapentaenoic acid]
neutrophil infiltration (MPO activity) [1]: reducing
intrathecal capsaicin-evoked acute spontaneous pain ([2]; intrathecal RvE1 mixed with capsaicin 0.5 μg): prevented
intraplantar capsaicin-induced acute pain ([2]; peripheral (intraplantar) RvE1 10 min before capsaicin 5 μg): reduced
TNF-α-induced ERK phosphorylation in superficial dorsal horn neurons [3]: reduced the phosphorylation
formalin-evoked acute pain [4]: rapidly attenuated
